Structures can show the parent of a compound that is named as a salt.
Test: Stability of gantofiban citrate per se and when compounded with common fillers, binders and disintegrating agents
Format: physicochemical

CCOC(=O)CN1CCN(C[C@@H]2CN(c3ccc(C(N)=NC(=O)OC)cc3)C(=O)O2)CC1 [gantofiban citrate, 1-ethyl methylester 4-[[(5R)-3-[p-(carboxyamidino)phenyl]-2-oxo-5-oxazolidinyl]methyl]-1-piperazineacetate]
Stability in a preparation containing it (compounded with fillers, binders and disintegrating agents (lactose, D-mannitol, finely crystalline cellulose, corn starch etc.)): decomposed with a lapse of time
Stability of the substance per se (gantofiban citrate alone): stable substance
